# Data as given in PMC7587356, “High-Throughput Screening for Inhibitors of the SARS-CoV-2 Protease Using a FRET-Biosensor” (Molecules, 2020).
# Read-outs that look alike come from different tables or passages of the source.
# Biological target: SARS-CoV-2 3CLpro (Severe acute respiratory syndrome coronavirus 2, UniProt P0DTD1)
# Assay: biochemical
# Type: biochemical
# Design: Replicate_1 / Replicate_2 / mean / mean (LOPAC_screen_w_protease): unit not given here
# Details: for mean / Replicate_1 / Replicate_2 / mean (LOPAC screen with protease) / Replicate_1 (LOPAC screen with protease) / Replicate_2 (LOPAC screen with protease): sheet LOPAC_screen_w_protease; for mean (LOPAC screen with protease) / Replicate_1 (LOPAC screen with protease) / Replicate_2 (LOPAC screen with protease): primary screen at 5 µM
# [1] = primary screen with protease, mean of two replicates
# [2] = primary screen with protease, replicate 1
# [3] = primary screen with protease, replicate 2
# [4] = primary screen with protease, 5 µM, mean of two replicates
# [5] = primary screen with protease, 5 µM, replicate 1
# [6] = primary screen with protease, 5 µM, replicate 2
# [7] = LOPAC1280 primary screen with protease, 5 µM compound, mean of the two replicates
# [8] = LOPAC1280 primary screen with protease, 5 µM compound, replicate 1
# [9] = LOPAC1280 primary screen with protease, 5 µM compound, replicate 2
# [10] = primary screen with protease, compound at 5 µM, mean of two replicates
# [11] = primary screen with protease, compound at 5 µM, replicate 1
# [12] = primary screen with protease, compound at 5 µM, replicate 2
# [13] = LOPAC1280 primary screen at 5 µM, with protease, mean of the two replicates
# [14] = LOPAC1280 primary screen at 5 µM, with protease, replicate 1
# [15] = LOPAC1280 primary screen at 5 µM, with protease, replicate 2
compound,measurement,setting,value
NC(N)=NCc1cccc(I)c1.NC(N)=NCc1cccc(I)c1.O=S(=O)(O)O [m-Iodobenzylguanidine hemisulfate],mean,[1],2.496
same,Replicate_1,[2],1.063
same,Replicate_2,[3],3.929
Cl.Cl.Oc1ccc2c3c1O[C@H]1c4[nH]c5c(c4C[C@@]4(O)[C@@H](C2)N(CC2CC2)CC[C@]314)C[C@@]1(O)[C@H]2Cc3ccc(O)c4c3[C@@]1(CCN2CC1CC1)[C@H]5O4 [nor-Binaltorphimine dihydrochloride],mean (LOPAC screen with protease),mean of two replicates,34.0021
same,Replicate_1 (LOPAC screen with protease),replicate 1,34.0521
same,Replicate_2 (LOPAC screen with protease),replicate 2,33.9521
Cl.Nc1cc(Cl)c(N=C2NCCN2)c(Cl)c1 [p-Aminoclonidine hydrochloride],mean,[4],0.1922
same,Replicate_1,[5],0.5913
same,Replicate_2,[6],-0.207
O=C1C=CC(=O)C=C1 [p-Benzoquinone],mean (LOPAC_screen_w_protease),[7],2.118
same,Replicate_1 (LOPAC_screen_w_protease),[8],1.8862
same,Replicate_2 (LOPAC_screen_w_protease),[9],2.35
N[C@@H](Cc1ccc(F)cc1)C(=O)O [p-Fluoro-L-phenylalanine],mean (LOPAC_screen_w_protease),[7],2.051
same,Replicate_1 (LOPAC_screen_w_protease),[8],4.147
same,Replicate_2 (LOPAC_screen_w_protease),[9],-0.04537
Cl.Clc1cc(I)cc(Cl)c1NC1=NCCN1 [p-Iodoclonidine hydrochloride],mean,[1],2.258
same,Replicate_1,[2],3.3723
same,Replicate_2,[3],1.143
COc1ccccc1N1CCN(CCN(C(=O)c2ccc(F)cc2)c2ccccn2)CC1.Cl.Cl [p-MPPF dihydrochloride],mean (LOPAC screen with protease),mean of two replicates,7.242
same,Replicate_1 (LOPAC screen with protease),replicate 1,5.881
same,Replicate_2 (LOPAC screen with protease),replicate 2,8.603
COc1ccccc1N1CCN(CCN(C(=O)c2ccc(I)cc2)c2ccccn2)CC1.Cl [p-MPPI hydrochloride],mean,[10],3.1199
same,Replicate_1,[11],5.19
same,Replicate_2,[12],1.05
"O=c1c(O)c(-c2ccc(O)c(O)c2)oc2cc(O)cc(O)c12 [quercetin, reference compound]",inhibition at 5 µM,read-out: inhibition of 3CLpro in the primary screen,1.9%
(+)-Catechin Hydrate,mean (LOPAC screen with protease),mean of two replicates,22.7149
same,Replicate_1 (LOPAC screen with protease),replicate 1,22.57
same,Replicate_2 (LOPAC screen with protease),replicate 2,22.8597
(+)-Cyclazocine,mean,"LOPAC1280 at 5 µM, mean of two replicates",1.031
same,Replicate_1,"LOPAC1280 at 5 µM, replicate 1",2.203
same,Replicate_2,"LOPAC1280 at 5 µM, replicate 2",-0.1419
(-)-3-Methoxynaltrexone hydrochloride,mean,[7],5.384
same,Replicate_1,[8],4.034
same,Replicate_2,[9],6.735
Ceramide,mean,[10],2.999
same,Replicate_1,[11],2.718
same,Replicate_2,[12],3.28
Foliosidine,mean,"primary screen of LOPAC1280 at 5 µM with protease, mean of the two replicates",3.597
same,Replicate_2,"primary screen of LOPAC1280 at 5 µM with protease, replicate 2",2.375
L-Methionine sulfoximine,Replicate_1 (LOPAC_screen_w_protease),,2.433
same,Replicate_2 (LOPAC_screen_w_protease),,0.2989
same,mean (LOPAC_screen_w_protease),,1.366
"MDL 26,630 trihydrochloride",mean,[7],6.178
same,Replicate_1,[8],5.659
same,Replicate_2,[9],6.697
Oligomycin A,mean,[7],6.143
same,Replicate_1,[8],3.7549
same,Replicate_2,[9],8.531
Phenylbenzene-omega-phosphono-alpha-amino acid,mean,[13],0.7227
same,Replicate_1,[14],0.6047
same,Replicate_2,[15],0.8406
Picrotoxin,mean,[7],4.15
same,Replicate_1,[8],3.321
same,Replicate_2,[9],4.978
R(-)-SCH-12679 maleate,mean,[13],0.5011
same,Replicate_1,[14],0.9263
same,Replicate_2,[15],0.07597
Ro 8-4304,mean,[4],0.161
same,Replicate_1,[5],-1.418
same,Replicate_2,[6],1.74
S(-)-DS 121 hydrochloride,mean,[1],2.32
same,Replicate_1,[2],2.977
S-Nitroso-N-acetylpenicillamine,mean,[7],5.369
same,Replicate_1,[8],5.411
same,Replicate_2,[9],5.326
trans-(±)-ACPD,Replicate_1 (LOPAC_screen_w_protease),[8],2.281
same,Replicate_2 (LOPAC_screen_w_protease),[9],1.598
